Test results: the NIST ThermoML archive (doi:10.1007/s10765-005-8089-2)
Numbers after ± are expanded uncertainties.

Assays:
[1] = Liquid
[2] = xn = mol fraction of the nth substance listed; settings: Liquid, Falling or rolling sphere viscometry, x1 = 1

CCO [ethanol]
viscosity [mPa·s], [1], Falling or rolling sphere viscometry
Settings	100 kPa	20000 kPa	40000 kPa	60000 kPa	80000 kPa	100000 kPa
293.15 K	1.194 ± 0.026	1.344 ± 0.029	1.494 ± 0.032	1.647 ± 0.035	1.797 ± 0.039	1.955 ± 0.042
313.15 K	0.826 ± 0.018	0.948 ± 0.02	1.059 ± 0.023	1.171 ± 0.025	1.282 ± 0.028	1.392 ± 0.03
333.15 K	0.59 ± 0.013	0.683 ± 0.015	0.769 ± 0.017	0.851 ± 0.018	0.934 ± 0.02	1.015 ± 0.022
353.15 K	–	0.51 ± 0.011	0.574 ± 0.012	0.636 ± 0.014	0.699 ± 0.015	0.763 ± 0.016

CCO [ethanol] + Cc1ccccc1
viscosity [mPa·s], [2]
Settings	100 kPa	20000 kPa	40000 kPa	60000 kPa	80000 kPa	100000 kPa
293.15 K	1.194 ± 0.026	1.344 ± 0.029	1.494 ± 0.032	1.647 ± 0.035	1.797 ± 0.039	1.955 ± 0.042
313.15 K	0.826 ± 0.018	0.948 ± 0.02	1.059 ± 0.023	1.171 ± 0.025	1.282 ± 0.028	1.392 ± 0.03
333.15 K	0.59 ± 0.013	0.683 ± 0.015	0.769 ± 0.017	0.851 ± 0.018	0.934 ± 0.02	1.015 ± 0.022
353.15 K	–	0.51 ± 0.011	0.574 ± 0.012	0.636 ± 0.014	0.699 ± 0.015	0.763 ± 0.016

CO [methanol]
viscosity [mPa·s], [1], Capillary tube (Ostwald / Ubbelohde) method
Settings	100 kPa	20000 kPa	40000 kPa	60000 kPa	80000 kPa	100000 kPa
293.15 K	0.583 ± 0.012	0.646 ± 0.014	0.706 ± 0.015	0.767 ± 0.016	0.83 ± 0.017	0.894 ± 0.019
313.15 K	0.445 ± 0.009	0.497 ± 0.011	0.546 ± 0.012	0.593 ± 0.013	0.64 ± 0.013	0.683 ± 0.014
333.15 K	0.343 ± 0.007	0.386 ± 0.008	0.424 ± 0.009	0.462 ± 0.01	0.501 ± 0.011	0.543 ± 0.011
353.15 K	–	0.303 ± 0.007	0.337 ± 0.007	0.368 ± 0.008	0.4 ± 0.009	0.433 ± 0.009
